Assay results taken from US5939385A, “Transglutaminase cross-linkable polypeptides and methods relating thereto” (ZymoGenetics, Inc., priority 1995, dated 1999).
No end group written: not given here.

Target: T1, recombinant Factor XIII (rFXIIIa) (Homo sapiens, UniProt P00488)
T1 construct: made in house
T1 sequence (P00488 39-732 limits assumed): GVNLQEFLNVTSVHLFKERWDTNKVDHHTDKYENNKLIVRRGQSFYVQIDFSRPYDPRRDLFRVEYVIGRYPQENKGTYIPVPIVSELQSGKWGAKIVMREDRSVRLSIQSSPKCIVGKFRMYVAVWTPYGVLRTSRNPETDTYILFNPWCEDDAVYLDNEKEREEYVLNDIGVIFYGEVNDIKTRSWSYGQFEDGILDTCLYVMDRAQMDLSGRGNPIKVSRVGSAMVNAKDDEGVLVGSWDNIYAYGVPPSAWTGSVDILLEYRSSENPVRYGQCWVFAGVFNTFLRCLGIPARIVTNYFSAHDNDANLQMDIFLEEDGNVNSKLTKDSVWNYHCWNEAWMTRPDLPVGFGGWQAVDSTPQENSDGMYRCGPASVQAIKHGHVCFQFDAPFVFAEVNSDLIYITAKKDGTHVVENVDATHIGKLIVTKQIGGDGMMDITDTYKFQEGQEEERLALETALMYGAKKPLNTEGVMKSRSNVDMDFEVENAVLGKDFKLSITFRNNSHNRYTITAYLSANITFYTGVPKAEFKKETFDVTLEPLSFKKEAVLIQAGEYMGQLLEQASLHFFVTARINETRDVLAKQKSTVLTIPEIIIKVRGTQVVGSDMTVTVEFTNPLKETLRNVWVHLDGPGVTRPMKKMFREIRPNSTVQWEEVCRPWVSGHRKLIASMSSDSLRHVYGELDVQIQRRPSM
Test: Factor XIII cross-linking assay of test polypeptide substrates (HPLC area % vs time)
Format: biochemical
Method: Polypeptides are screened for the ability to form transglutaminase-catalyzed cross-links using a cross-linking assay as described in more detail below. […] Each reaction receives 50 mM CaCl2 to a final concentration of 2.5 mM. A negative control for each test substrate is also prepared in which the reaction lacks a transglutaminase (e.g., Factor XIII). A positive control of the fibrinogen polypeptide (The-Ile-Gly-Glu-Gly-Gln-Gln-His-His-Leu-[…]-Gln-Ala-Gly-Asp-Val) is used for each set of reactions. The reactions are initiated by the addition of 40 μg/ml of transglutaminase (e.g., recombinant Factor XIII) followed by 0.1 unit of bovine thrombin (Enzyme Research Laboratories, Inc., South Bend, Ind.) to each solution, except the negative controls. The reactions are incubated in a 37° C. water bath. A time course of 10 μl samples are taken from each reaction at 0 minutes, 30 minutes, 60 minutes, 120 minutes and overnight. The reactions are stopped by boiling for one minute. After the reactions are terminated, each sample is diluted to 50 μl with 40 μl of TBS buffer (120 mM NaCl, 50 mM Tris (pH 7.6)) and the samples are prepared for HPLC analysis.
Each sample is chromatographed on a C-18 reverse phase HPLC column (Vydac, Hesperia, Calif. or the like) using a gradient of 0-40% B in 30 minutes (Solvent A: 0.05% trifluoroacetic acid (TFA) in water and Solvent B: 0.045% TFA in 80% acetonitrile, 20% water) on a Hewlett Packard 1090 Series II HPLC or the like. The signal is detected at a wavelength of 215 nm. The area % of each reaction product is collected and plotted versus time to determine the rates of polypeptide utilization dimer formation and multimer formation. A deamidation ratio is determined by dividing the deamidation rate by the dimerization rate.
The ability of the test polypeptides to form Factor XIII-induced multimers, and the susceptibility of the polypeptides to deamidation were assessed using the method described in detail below.
Approximately 0.5 mg of lyophilized polypeptide was dissolved in 50 mM Tris, 125 mM NaCl (pH 7.6) to give a final concentration of 2 mM by weight. […] Each test polypeptide solution received 50 mM CaCl2 to a final concentration of 2.5 mM. For each reaction, a negative control lacking Factor XIII was included. A positive control of the fibrinogen polypeptide Thr-Ile-Gly-Glu-Gly-Gln-Gln-His-His-Leu-Gly-Gly-Ala-Lys-Gln-Ala-Gly-Asp-Val was used for each set of reactions. The reactions were initiated by the addition of 40 μg/ml of recombinant Factor XIII followed by 0.1 unit of bovine thrombin (Enzyme Research Laboratories, Inc.) to each solution, except the negative controls. The reactions were incubated in a 37° C. water bath. Samples of 10 μl were taken from each reaction at 0 minutes, 30 minutes, 60 minutes, 120 minutes and overnight. The reactions were stopped by boiling for one minutes. The samples were diluted to 50 μl TBS buffer (120 mM NaCl, 50 mM Tris (pH 7.6)), and the samples were prepared for HPLC analysis.
Each reaction was chromatographed on a C-18 reverse phase HPLC column (Vydac, Hesperia, Calif., or the like) using a gradient of 0-40% B in 30 minutes (solvent A: 0.05% TFA in water and Solvent B: 0.045% TFA in 80% acetonitrile/20% water) on a Hewlett Packard 1090 Series II HPLC. The signal was detected at a wavelength of 215 nm. The area % of each reaction product was collected and plotted versus time to determine the rates of polypeptide utilization and dimer formation. A deamidation ratio was determined by dividing the deamidation rate by the dimerization rate. […] The abbreviations used in Table 1 are as follows: d[S]/dt indicates the rate of substrate utilization, d[S2 ]/dt indicates the rate of dimer formation and (-NH2 /S2) indicates the relative rates of deamidation to dimerization. The initial rates were normalized to that of the fibrinogen polypeptide Thr-Ile-Gly-Glu-Gly-Gln-Gln-His-His-Leu-Gly-Gly-Ala-Lys-Gln-Ala-Gly-Asp-Val. […]

[1] = initial rate, 2mM substrate, 40 ug/ml rFXIIIa (preactivated), 2.0 U/ml Thrombin, 2.5 mM CaCl2, pH 7.4

Monomer Consumption d[S]/dt (rate of substrate utilization) (initial rate, 2mM substrate, 40 ug/ml rFXIIIa (preactivated), 2.0 U/ml Thrombin, 2.5 mM CaCl2, 125 mM NaCl, 50 mM TrisHCl, pH 7.4): -20.8 uM (monomer)/min | Crosslinking d(2[S-])/dt (rate of monomer incorporation into dimers) [1]: 15.8 uM (monomer)/min | Hydrolysis d[-NH3]/dt (hydrolysis = deamidation) [1]: 1.8 uM (monomer)/min | Hydrolysis % (share of hydrolysis (deamidation) relative to hydrolysis plus crosslinking, same reaction conditions): 10%
Sequence: VPGVGQHHLGGAKVPGVG [VPGVGQ-- HHLGGAKVPGVG]
